In brackets after ≈: the same amount, converted by molar mass. Like-named read-outs stand apart in the source and are kept apart here.
Tests used:
[1] = system: MDCK-WT cells; test: Cytotoxicity, MTS assay; format: cell-based; settings: 4 h incubation; for Reduction in absorbance (positive controls): medium containing 10% DMSO or 0.1% Triton-X
Protocol: Cytotoxicity of prodrugs was determined in MDCK-WT cells with MTS assay based cytotoxicity kit. Briefly, cells were grown overnight in 96 well plates at a density of 20,000 cells per well prior to drug and prodrug addition. […] Cells were then incubated for 4 h at 37 °C. Following incubation, 20 μL of MTS stock solution was added to each well and incubated for 2 h at 37 °C. […] The quantity of formazan product as measured by absorbance is directly proportional to the number of viable cells in test samples.

[2] = Solubility study in distilled deionized water (DDW); settings: for Solubility, fold higher relative to LPV: DDW; for solubility at 24 h: distilled deionized water, water, thermodynamic from solid; for Solubility in DDW: saturated solution, room temperature, 24 h
Protocol: Aqueous solubility study of prodrugs was performed according to the published protocol from our laboratory. Saturated solution of each prodrug was prepared in DDW in siliconized tubes. Tubes were placed in shaking water bath at room temperature (RT) for 24 h. Tubes were centrifuged at 10,000 rpm for 10 min to separate undissolved prodrugs. The supernatant was separated, filtered through 0.45 µm membrane (Nalgene syringe filter) and analyzed with HPLC after appropriate dilutions.
(§1) Aqueous solubility and buffer stability samples were measured with reversed phase HPLC technique. Waters 515 pump (Waters, Milford, MA, USA) connected to a UV detector (Absorbance Detector Model UV-C, RAININ, Dynamax, Palo Alto, CA, USA) was employed. A C(18) Kinetex column (100 × 4.6 mm, 2.6 µ; Phenomenex, Torrance, CA, USA) was pumped with mobile phase (1:1) acetonitrile and water (0.1% trifluoroacetic acid) at a flow rate of 0.3 mL/min. Analytes were detected with UV detection at a wavelength of 210 nm.

[3] = Buffer stability (chemical hydrolysis) in DPBS; settings: for half-life at 50 µM: DPBS buffer; for Degradation half life: DPBS
Protocol: Chemical hydrolysis study of prodrugs was carried out according to the previously published protocols from our laboratory. Degradation rate constant and half-life (t1/2) of prodrugs were determined at various pH. […] Microcentrifuge tubes were placed in shaking water bath (60 rpm) at 37 °C. Samples (100 µL) were withdrawn at predetermined time points and stored at −80° C until further analysis. Prodrug concentrations remaining were plotted versus time in order to calculate degradation rate constants.
as §1

[4] = molecular target: T1, P-gp (MDCK-MDR1 cells) (Homo sapiens, UniProt P08183); test: Transepithelial transport across MDCK-MDR1 cells
Protocol: Samples were stored at −80 °C until further analysis.
Samples were extracted with liquid–liquid extraction technique.

[5] = system: CYP3A4 (rat liver microsomes); test: Rat liver microsomal stability; settings: for Half life in liver microsomes, fold higher compared to LPV: time dependent study
Protocol: (§2) One mL of microsomal solution was generated by adding microsomal protein (0.3 mg/mL), magnesium chloride (5 mM), glucose 6-phosphate (5 mM), b-NADP1 (1 mM), and glucose 6-phosphate dehydrogenase (1 U/mL) in phosphate buffer (100 mM, pH 7.4). […] The metabolic reaction was initiated by adding the NADPH generating system. NADPH generating system was freshly prepared by adding G-6-P, G-6-P DH and NADP in DDW. At predetermined time points, metabolic reaction was arrested by adding equal volumes of ice-cold acetonitrile to the sample. Samples were stored at −80 °C until further analysis by LCMS/MS technique.
(§3) This study was performed according to the previously published protocols from our laboratory. At predetermined time points, about 100 μL of samples were withdrawn and equal volume of acetonitrile was added to stop the degradation process. Degradation study was conducted for a period of 2 h. Samples were stored at −80 °C until further analysis.
(§4) Enzymatic degradation was arrested by adding equal amount of acetonitrile and samples were stored in −80 °C until further analysis.
(§5) Rat liver microsomes were employed at the concentration of 0.3 mg/mL. […] Liver microsomal solution was incubated with ketoconazole for 15 min prior to the initiation of stability study.

[6] = system: CYP3A4; test: Rat liver microsomal stability; settings: Sprague Dawley, rat, pH 7.4
Protocol: as §2, §3, §4, §5

[7] = molecular target: T2, MRP2 (MDCK-MRP2 cells) (Homo sapiens, UniProt Q92887); test: Transepithelial transport across MDCK-MRP2 cells
Protocol: Transwell® inserts were coated with type 1 rat tail collagen (100 µg/cm^2). Cells were seeded at a density of 250,000 cells per well. Transport studies were conducted across MDCK-MDR1 and MDCK-MRP2 cells in presence and absence of efflux inhibitors for a period of 3 h at 37 °C. Prior to the initiation of transport study, cell monolayer integrity was evaluated by monitoring transepithelial electric resistance (TEER), with an EVOM (epithelial volt ohmmeter from World Precision Instruments, Sarasota, FL, USA). TEER values of the cell monolayer were approximately 250 Ω*cm^2. Monolayers were washed thoroughly with DBPS (pH7.4) for 15 min at 37 °C, three times. […] At predetermined time points (30, 60, 120 and 180 min), 100 µL sample was withdrawn from the receiving chamber and replaced with fresh DPBS to maintain sink conditions. Samples were stored at −80 °C until further analysis. To determine the effect of efflux inhibitors, cells were treated GF 120918 (MDCK-MDR1) and MK 571 (MDCK-MRP2) prior to initiation of the transport study.
Samples were extracted with liquid–liquid extraction technique. About, 50 μL of verapamil (200 ng) was added as an internal standard to each sample. Analytes were extracted by vortexing with 800 μL water saturated ethyl acetate for 2.5 min. Following centrifugation at 10,000 rpm for 7 min, approximately 600 µL of ethyl acetate layer was collected and evaporated under reduce pressure for 45 min. The residue was reconstituted in 100 μL of acetonitrile (80%) and water (20%) containing 0.1% formic acid. Ten microliters of reconstituted samples were injected in LCMS/MS. Similarly, standard solutions were extracted from DPBS and quantified with LCMS/MS. […]
Transepithelial permeability was determined by plotting cumulative amount of analyte transported against time. […]
Transepithelial permeability was calculated by normalizing the steady-state flux with the donor concentration (Cd) according to Equation (2): Transepithelial permeability = flux/Cd (2)

[8] = molecular target: T1, P-gp (MDCK-MDR1 cells); test: Cellular uptake of unlabelled LPV and prodrugs in MDCK-MDR1 cells; format: in vitro ADME; design: A. Schinkel and P. Borst (Netherlands Cancer Institute); host or cells: MDCK (MDCK-MDR1), retrovirally transfected; settings: 5 µM, 30 min
Protocol: About 500 µL of DMEM was added to each well and plates were kept in −80 °C overnight for cell lysis.

[9] = molecular target: T1, P-gp (MDCK-MDR1 cells); settings: MDCK-MDR1, DPBS pH 7.4, 37 °C
Protocol: (§6) Confluent cells were then trypsinized and plated at a density of 3 × 10^6 cells in 12 well culture plates. Medium was replaced every alternate day until cells reached confluency (6–7 days). Cellular uptake studies were performed on confluent cell monolayers according to previously published protocol from our laboratory. Briefly, medium was removed and cell monolayer was washed with 2 mL of DPBS (130 mM NaCl, 0.03 mM KCl, 7.5 mM Na2HPO4, 1.5 mM KH2PO4, 1 mM CaCl2, 0.5 mM MgSO4, and 5 mM glucose, pH 7.4) three times at 37 °C (each wash of 10 min). […] Following incubation, radioactive solution was quickly removed and plates were washed with ice-cold stop solution (210 mM KCl, 2 mM HEPES, pH of 7.4) to arrest the uptake process. One mL of lysis buffer (0.1% Triton-X solution in 0.3% NaOH) was added to each well and plates were stored overnight at RT. Later, 500 µL solutions were transferred to scintillation vials containing 3 mL of scintillation cocktail. The radioactivity associated with cells was analyzed with a scintillation counter (Beckman Instruments Inc., Model LS-6500; Fullerton, CA, USA). Uptake rate was normalized to protein count which was quantified with a BioRad protein estimation kit.
(§7) Prior to initiation of uptake studies, cells were treated with efflux inhibitors for a period of 15 min. Uptake study was then initiated according to a procedure described in section 2.2.5.

[10] = molecular target: T2, MRP2 (MDCK-MRP2 cells); test: [3H]-LPV uptake in MDCK-MRP2 cells; format: cell-based; design: A. Schinkel and P. Borst (Netherlands Cancer Institute); host or cells: MDCKII (MDCKII-MRP2), retrovirally transfected; settings: for [3H]-LPV uptake, fold enhancement in presence of inhibitor: DPBS pH 7.4, 37 °C
Protocol: as §6, §7

T1 sequence (P08183 whole entry): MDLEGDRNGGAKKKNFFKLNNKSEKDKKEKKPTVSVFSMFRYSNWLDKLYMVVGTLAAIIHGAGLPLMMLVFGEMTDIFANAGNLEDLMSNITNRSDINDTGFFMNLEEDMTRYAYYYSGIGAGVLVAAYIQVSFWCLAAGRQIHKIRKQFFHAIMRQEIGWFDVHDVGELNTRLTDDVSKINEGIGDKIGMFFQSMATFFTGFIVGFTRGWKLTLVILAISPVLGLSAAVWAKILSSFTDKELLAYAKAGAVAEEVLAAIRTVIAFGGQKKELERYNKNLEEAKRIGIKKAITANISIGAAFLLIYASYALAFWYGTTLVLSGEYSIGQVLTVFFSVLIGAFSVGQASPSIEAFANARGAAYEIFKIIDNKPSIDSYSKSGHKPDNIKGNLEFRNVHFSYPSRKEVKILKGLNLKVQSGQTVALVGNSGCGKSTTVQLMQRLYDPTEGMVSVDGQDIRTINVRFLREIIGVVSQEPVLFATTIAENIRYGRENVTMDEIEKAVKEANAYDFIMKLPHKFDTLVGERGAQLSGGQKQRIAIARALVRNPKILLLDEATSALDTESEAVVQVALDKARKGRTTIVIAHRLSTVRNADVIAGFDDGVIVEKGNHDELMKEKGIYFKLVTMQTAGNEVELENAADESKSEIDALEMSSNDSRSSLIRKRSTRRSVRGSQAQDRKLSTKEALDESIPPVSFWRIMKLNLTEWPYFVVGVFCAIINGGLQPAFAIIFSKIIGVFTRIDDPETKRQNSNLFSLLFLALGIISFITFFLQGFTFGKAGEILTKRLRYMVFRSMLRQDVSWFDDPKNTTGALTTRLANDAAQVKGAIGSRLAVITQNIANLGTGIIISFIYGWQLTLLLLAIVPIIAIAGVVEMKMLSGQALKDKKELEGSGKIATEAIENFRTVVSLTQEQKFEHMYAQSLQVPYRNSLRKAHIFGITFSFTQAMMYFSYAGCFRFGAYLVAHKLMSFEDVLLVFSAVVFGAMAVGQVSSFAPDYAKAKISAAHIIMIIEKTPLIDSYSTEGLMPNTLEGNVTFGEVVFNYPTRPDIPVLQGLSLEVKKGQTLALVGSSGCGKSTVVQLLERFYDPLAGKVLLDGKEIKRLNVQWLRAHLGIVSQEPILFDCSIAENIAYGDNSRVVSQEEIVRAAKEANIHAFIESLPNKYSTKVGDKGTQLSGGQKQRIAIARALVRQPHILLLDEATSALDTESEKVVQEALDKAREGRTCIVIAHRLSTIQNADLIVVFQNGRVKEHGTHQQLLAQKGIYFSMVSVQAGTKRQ
T2 sequence (Q92887 whole entry): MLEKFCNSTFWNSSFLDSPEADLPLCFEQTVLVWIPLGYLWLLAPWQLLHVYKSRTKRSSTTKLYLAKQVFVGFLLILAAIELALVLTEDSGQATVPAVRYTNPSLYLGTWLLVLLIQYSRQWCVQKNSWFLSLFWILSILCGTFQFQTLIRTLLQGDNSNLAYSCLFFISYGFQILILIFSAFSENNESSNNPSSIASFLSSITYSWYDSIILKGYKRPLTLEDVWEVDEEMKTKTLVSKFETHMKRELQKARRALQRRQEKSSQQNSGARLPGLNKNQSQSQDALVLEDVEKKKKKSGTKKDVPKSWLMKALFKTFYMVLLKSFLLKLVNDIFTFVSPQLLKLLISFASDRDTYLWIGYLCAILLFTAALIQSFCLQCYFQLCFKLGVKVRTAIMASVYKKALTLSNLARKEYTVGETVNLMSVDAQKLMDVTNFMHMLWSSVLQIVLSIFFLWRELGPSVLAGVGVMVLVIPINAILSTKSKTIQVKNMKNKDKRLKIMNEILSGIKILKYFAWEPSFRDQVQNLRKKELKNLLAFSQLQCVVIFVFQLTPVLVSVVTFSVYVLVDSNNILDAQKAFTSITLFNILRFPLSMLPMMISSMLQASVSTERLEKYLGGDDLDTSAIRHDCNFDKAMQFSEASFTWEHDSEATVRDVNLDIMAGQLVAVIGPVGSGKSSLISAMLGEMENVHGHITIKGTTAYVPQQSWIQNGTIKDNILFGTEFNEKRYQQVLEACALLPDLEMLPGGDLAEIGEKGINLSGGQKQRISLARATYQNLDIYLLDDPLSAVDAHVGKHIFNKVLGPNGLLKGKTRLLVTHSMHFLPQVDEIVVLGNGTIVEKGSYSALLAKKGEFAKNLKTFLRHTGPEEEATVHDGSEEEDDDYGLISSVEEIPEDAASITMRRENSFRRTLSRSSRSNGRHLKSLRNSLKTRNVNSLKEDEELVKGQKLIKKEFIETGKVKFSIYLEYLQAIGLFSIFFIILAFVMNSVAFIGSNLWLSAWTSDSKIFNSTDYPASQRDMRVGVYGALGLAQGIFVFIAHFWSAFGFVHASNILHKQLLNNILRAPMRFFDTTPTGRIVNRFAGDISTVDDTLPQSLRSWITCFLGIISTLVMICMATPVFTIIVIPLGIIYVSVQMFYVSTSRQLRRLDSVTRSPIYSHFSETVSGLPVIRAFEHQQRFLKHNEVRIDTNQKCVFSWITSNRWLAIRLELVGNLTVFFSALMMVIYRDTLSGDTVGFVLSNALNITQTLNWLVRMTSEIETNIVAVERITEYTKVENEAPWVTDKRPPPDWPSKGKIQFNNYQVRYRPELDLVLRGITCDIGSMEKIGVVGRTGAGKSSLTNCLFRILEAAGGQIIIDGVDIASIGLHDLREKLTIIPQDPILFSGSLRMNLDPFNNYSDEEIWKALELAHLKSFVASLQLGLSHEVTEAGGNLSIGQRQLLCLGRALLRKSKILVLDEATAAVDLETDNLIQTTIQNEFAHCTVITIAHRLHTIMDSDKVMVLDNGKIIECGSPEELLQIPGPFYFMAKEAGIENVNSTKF

With `C[S+](C)[O-]` [DMSO] the “Reduction in absorbance (positive controls)” value [1] was 30%.

For `CCC(C)C(N)C(=O)OC(CC(Cc1ccccc1)NC(=O)C(C(C)C)N1CCCNC1=O)C(Cc1ccccc1)NC(=O)COc1c(C)cccc1C` (stereo not shown) [Ile-LPV, isoleucine-LPV], the “Solubility, fold higher relative to LPV” value [2] was “about 15 fold”, the solubility at 24 h [2] was 625 ± 27 µg/mL (≈ 842 µM) and the half-life at 50 µM ([3]; pH 4) was 101 ± 29 h. For the same compound, the half-life at 50 µM ([3]; pH 5.5) was 53 ± 10 h, the half-life at 50 µM ([3]; pH 7.4) was 6.4 ± 0.3 h and the “A-B permeability, fold higher relative to LPV” value [4] was “about 3 fold”. For the same compound, the “Half life in liver microsomes, fold higher compared to LPV” value (“Half life … fold higher compared to LPV” for short) [5] was 1.6 to 1.8 fold, the Km at 5 min [6] was roughly 14.3 µM and the “A-B permeability, fold higher relative to LPV” value [7] was “about 2.8 fold”. The “Cellular uptake, fold higher relative to LPV” value [8] was “about 2.7 fold”.

With `Cc1cccc(C)c1OCC(=O)N[C@@H](Cc1ccccc1)[C@@H](O)C[C@H](Cc1ccccc1)NC(=O)[C@H](C(C)C)N1CCCNC1=O` [LPV, lopinavir] the solubility at 24 h [2] was 40 ± 8 µg/mL (≈ 63.6 µM), the Cytotoxicity ([1]; 100 µM) was “generated cytotoxic effects” and the “[3H]-LPV uptake in presence of increasing concentrations of test compound” value [9] was “elevated significantly”. For the same compound, the “[3H]-LPV uptake in presence of increasing concentrations of test compound” value ([10]; MDCK-MRP2, DPBS pH 7.4, 37 °C) was “enhancement of [3H]-LPV uptake”.

In the case of `CN(C)C(=O)CCSC(SCCC(=O)O)c1cccc(/C=C/c2ccc3ccc(Cl)cc3n2)c1` (stereo not shown) [MK 571], the “[3H]-LPV uptake, fold enhancement in presence of inhibitor” value ([10]; 25 µM inhibitor) is reported as 2.5 fold and the “[3H]-LPV uptake, fold enhancement in presence of inhibitor” value ([10]; 75 µM inhibitor) is reported as 3 fold.

For `CSCCC(N)C(=O)OC(CC(Cc1ccccc1)NC(=O)C(C(C)C)N1CCCNC1=O)C(Cc1ccccc1)NC(=O)COc1c(C)cccc1C` (stereo not shown) [Met-LPV, methionine-LPV], the “Solubility, fold higher relative to LPV” value [2] was roughly 9 fold, the “Solubility in DDW” value [2] was 362 ± 21 µg/mL (≈ 476 µM) and the Degradation half life ([3]; pH 4, 37 °C) was 119 ± 6 h. For the same compound, the Degradation half life ([3]; pH 5.5, 37 °C) was 55 ± 6 h, the Degradation half life ([3]; pH 7.4, 37 °C) was 6.2 ± 0.4 h and the “A-B permeability, fold higher relative to LPV” value [4] was roughly 2.3 fold. For the same compound, the “Degradation rate constant in liver microsomal solution” value [5] was ~3.6 ± 0.4 × 10^−^3 min^−^1, the “Intrinsic clearance (Vmax/Km)” value [5] was 0.5 mL/min/mg protein and the Km [5] was roughly 13 µM. For the same compound, the “Half life … fold higher compared to LPV” value [5] was 1.6 to 1.8 fold, the “A-B permeability, fold higher relative to LPV” value [7] was roughly 1.9 fold and the “Cellular uptake, fold higher relative to LPV” value [8] was roughly 2.4 fold.

For `CC(C)(C)CC(C)(C)c1ccc(OCCO)cc1` [Triton-X], the “Reduction in absorbance (positive controls)” value [1] was 90%.

In the case of `Cc1cccc(C)c1OCC(=O)NC(Cc1ccccc1)C(CC(Cc1ccccc1)NC(=O)C(C(C)C)N1CCCNC1=O)OC(=O)C(N)Cc1c[nH]c2ccccc12` (stereo not shown) [Trp-LPV, tryptophan-LPV], the “Solubility, fold higher relative to LPV” value [2] is reported as roughly 7 fold, the “Solubility in DDW” value [2] is reported as 274 ± 11 µg/mL (≈ 336 µM) and the Degradation half life ([3]; pH 4, 37 °C) is reported as 123 ± 14 h. For the same compound, the Degradation half life ([3]; pH 5.5, 37 °C) was 50 ± 9 h, the Degradation half life ([3]; pH 7.4, 37 °C) was 5.4 ± 0.3 h and the “A-B permeability, fold higher relative to LPV” value [4] was roughly 1.8 fold. The Km ([5]; read-out: Km (affinity constant), 0.5–40 µM, 5 min, microsomes 0.3 mg/mL, Michaelis-Menten fit) was roughly 13.2 µM, the “Half life … fold higher compared to LPV” value [5] was 1.6 to 1.8 fold and the “A-B permeability, fold higher relative to LPV” value [7] was roughly 1.7 fold. The “Cellular uptake, fold higher relative to LPV” value [8] was roughly 1.8 fold.
